“Also recorded” adds a separate entry of the source.
Assays:
bone [1] = assay: External gamma camera / SPECT imaging of distribution in patients; assay type: in vivo, human
Experimental: Also note that the dose of the Sn-117m compound is within the range of dosages found to palliate pain according to the method of the invention.
The right panel depicts a three-dimensional reprojection image from SPECT (Single Photon Emission Computed Tomography) of a portion of the skeleton in the same patient.
(§1) Sn-117m (Sn^4+) DTPA was administered through an inlying infusion line over a period of 5-10 minutes. […] A complete urine collection was obtained over 4 days and a blood specimen obtained on the fourth day. This enabled an estimate of bone uptake. Two imaging studies to monitor the Sn-117m distribution were obtained in the first week and repeat chemistries were obtained at one week. Complete blood counts were obtained weekly for at least two months and less frequently thereafter. A repeat Tc-99m MDP bone imaging study was performed at two months.

[2] = system: white blood cells and platelets; assay: Hemopoietic toxicity by complete blood counts (white blood cells, platelets); assay type: in vivo, human
Experimental: (§2) Prior to initiation of therapy a Tc-99m MDP bone imaging study was obtained. Complete blood counts, including a differential and platelet count, electrolytes, and blood chemistries were obtained. No radiotherapy or chemotherapy had been administered to the patients in the prior month. Hormonal therapy was continued if the patient had been on hormonal therapy for more than three months without improvement in their clinical status.
as §1
As a result, a dosage of the Sn-117m chelate within the range found to be effective for consistent pain reduction can also be expected to be non-toxic to the patient.

bone pain = assay: Palliation of bone pain in human subjects (clinical study, patient pain records); assay type: in vivo; set-up: key to Result (pain relief): -: No relief; +: Partial Relief; ++: Good Relief
Experimental: (§3) Fourteen patients were enrolled in a controlled clinical study, including 9 males and 5 females. The patients were administered an Sn-117m chelate complex-containing composition (described above in Example 3) sufficient to provide between 33 and 156 μCi/kg body weight. The protocol was approved by an institutional review board and the United States Food and Drug Administration (FDA). All subjects gave informed consent.
as §2, §1
Patients maintained a record of pain levels and sites daily for two weeks and then twice a week for the next 6 weeks.

bone [3] = assay: Bone uptake estimated from 4-day urine collection and blood specimen (% Total in Bone); assay type: in vivo, human; details: i.v. infusion
Experimental: as §3, §1

In the case of “Sn-117m (Sn^4+) diethylenetriaminepentaacetic acid [Sn-117m (Sn^4+) DTPA]”, the “distribution in bone, whole body and SPECT images” value (bone [1]; cancer patient with bone metastases, 4 days after 5 mCi, FIG. 2) is reported as “patchy bright spots denote spread of cancer to bone”, the “distribution in bone by gamma camera imaging compared with technetium-99m-MDP” value (bone [1]; patient with prostate cancer spread to bone, 4 days after 10 mCi, FIG. 1) is reported as “similarity of distribution of the two nuclides” and the “white blood cell (WBC) count or platelet count” value ([2]; Patient 11, over three months following single administration (10.4 mCi)) is reported as “no decrease”. The hemopoietic toxicity ([2]; all patients in the study) was “no patients in the study showed evidence of hemopoietic toxicity”, the “Result (pain relief)” value (bone pain; Patient 4, prostate cancer, 61 kg, single 4.70 mCi (0.077 mCi/kg)) was “-” and the “Result (pain relief)” value (bone pain; Patient 6, unknown primary cancer, 108 kg, single 8.41 mCi (0.078 mCi/kg)) was “+”. The “Result (pain relief)” value (bone pain; Patient 7, prostate cancer, 59 kg, single 4.95 mCi (0.084 mCi/kg)) was “++”, the “Result (pain relief)” value (bone pain; Patient 8, lung cancer, 61 kg, single 8.95 mCi (0.146 mCi/kg)) was “++” and the “Result (pain relief)” value (bone pain; Patient 9, breast cancer, 59 kg, single 8.41 mCi (0.142 mCi/kg)) was “++”. The “Result (pain relief)” value (bone pain; Patient 10, breast cancer, 59 kg, single 8.00 mCi (0.135 mCi/kg)) was “++”, the “Result (pain relief)” value (bone pain; Patient 11, prostate cancer, 67 kg, single 10.46 mCi (0.156 mCi/kg)) was “+” and the “Result (pain relief)” value (bone pain; Patient 12, prostate cancer, 93 kg, single 14.46 mCi (0.156 mCi/kg)) was “++”. For the same substance, the “Result (pain relief)” value (bone pain; Patient 13, prostate cancer, 118 kg, single 15.49 mCi (0.131 mCi/kg)) was “++”, the “Result (pain relief)” value (bone pain; Patient 14, breast cancer, 50 kg, single 7.54 mCi (0.151 mCi/kg)) was “+” and the “response to treatment, lower dose” value (bone pain; patients given a lower dose) was “variable response to the treatment, in one case indicating that no relief was had”. For the same substance, the “relief of pain, higher dose” value (bone pain; seven patients who received more than about 9 mCi/70 kg (~129 μCi/kg), listed as Sn-117m chelates) was “all experienced relief of pain; also recorded: five experienced excellent relief; also recorded: two experienced partial relief”, the “relief or palliation of pain, overall” value (bone pain; single administrations, 33 to 156 μCi/kg, fourteen patients) was “dose-dependent relief or palliation of pain” and the “% Total in Bone” value (bone [3]; Patient 9, breast cancer, 8.41 mCi (0.142 mCi/kg)) was 72.1%. For the same substance, the “% Total in Bone” value (bone [3]; Patient 10, breast cancer, 8.00 mCi (0.135 mCi/kg)) was 59.2%, the “% Total in Bone” value (bone [3]; Patient 11, prostate cancer, 10.46 mCi (0.156 mCi/kg)) was 58.0% and the “% Total in Bone” value (bone [3]; Patient 12, prostate cancer, 14.46 mCi (0.156 mCi/kg)) was 34.1%. The “% Total in Bone” value (bone [3]; Patient 13, prostate cancer, 15.49 mCi (0.131 mCi/kg)) was 71.3% and the “% Total in Bone” value (bone [3]; Patient 14, breast cancer, 7.54 mCi (0.151 mCi/kg)) was 69.2%.

Source: US5853695A, “Method for palliation of pain in human bone cancer using therapeutic tin-117m compositions” (Brookhaven Science Associates LLC, priority 1996, dated 1998)
